Measured values: US20220387635A1, “PET IMAGING OF CANCEROUS CELLS USING 18F-FLUOROACETATE” (priority 2019, published 2022)
“Also recorded” adds a separate entry of the source.

Experiments:
NALM-6 ALL cells = experiment: In vitro radiotracer uptake in NALM-6 cells; type: cell-based; details: for Uptake rate: normalized to [14C]-thymidine, Example 1; for Uptake rate (slope of linear trendline of cell:media ratio): uptake measured at 30, 60, 120 min, FIG. 1 legend
Description: Cell uptake studies were performed in the presence of [^3H]-flouroacetate, [^3H]-glucose, and [^14C]-thymidine. Uptake levels were measure at 30, 60, and 120-minute intervals and expressed as a ratio of cellular retention versus concentration in surrounding media (cell:media ratio). Uptake rates were determined as a function of the slope of linear trendline. [^3H]-flouroacetate uptake rates were higher (dotted line; 0.053 min^−1) compared to glucose (dashed line; 0.028 min-1) and thymidine (solid line; 0.024 min^−1).
In vitro uptake of [^3H]-FA, [^3H]-glucose, and [^14C]-thymidine. Radiotracer uptake studies were performed as described previously (Najjar et al., 2009). Briefly, 10^7 NALM-6 were suspended in 6 mL of RPMI medium containing 10% FBS, [^14C]thymidine (0.01 μCi/mL; Moravek, Brea, Calif., USA) and [^3H]-fluoroacetate (0.1 μCi/mL; Moravek) or [^14C]thymidine (0.01 μCi/mL and [^3H]-glucose (2.5 μCi/mL). At time intervals of 30, 60, and 120 minutes, 1 mL aliquots were removed and the cells were pelleted in pre-weighed vials. A […], aliquot of the supernatant was transferred to a pre-weighed scintillation tube. The pellets were weighed following removal of the remainder of the media and thoroughly resuspended in 0.1 mL of Soluene-350 (Perkin-Elmer, Boston, Mass.). Radioactive beta emissions of the media and cell pellets were measured within pre-calibrated energy ranges using a Packard Tri-Carb 3100TR scintillation counter to quantitate [^3H]-FA, [^3H]-glucose, and [^14C]-thymidine uptake. The activity accumulation ratios of the cell pellets to the media ([disintegrations per minute/g cells]/[disintegrations per minute/g media]) were then determined and plotted.
Accordingly, in vitro radiotracer uptake studies were performed to determine the metabolic preference of NALM-6 cells for uptake and retention of fluoroacetate and glucose. The accumulation [^3H]-fluoroacetate and [^3H]-glucose was measured and compared separate experiments (FIG. 1). Uptake levels were normalized to [^14C]-thymidine levels for direct comparison. […] The rates of [^3H]-glucose and [^14C]-thymidine were more closely matched at 0.028 and 0.024 min^−1, respectively.

[1] = test system: NALM-6 tumor within the central nervous system; experiment: Dynamic PET time-activity curve in brain and spinal cord; type: in vivo, mouse; details: 1-hour dynamic PET; NALM-6 tumor-bearing (LMD) vs normal mice
Excerpt: Time-activity curve of [^18F]-fluoroacetate biodistribution within the brain and spinal cord. A dynamic PET scan was used to determine the time-dependent distribution [^18F]-fluoroacetate within regions-of-interest (ROI) in the brains and spinal cords of normal (control) and NALM-6 tumor-bearing (LMD) mice.

Compound	Uptake rate relative to [3H]-glucose (NALM-6 ALL cells)	Uptake rate (NALM-6 ALL cells)	Uptake rate (slope of linear trendline of cell:media ratio) (NALM-6 ALL cells)	Time-dependent distribution in brain and spinal cord ROI (time-activity curve) [1]
[3H]C(F)C(=O)O (centres unmarked) [[^3H]-fluoroacetate]	nearly twice the rate	0.056 min⁻¹	0.053 min⁻¹	
OC[C@H]1OC(O)[C@H](O)[C@@H](O)[C@@H]1O (some centres unmarked) [[^3H]-glucose]		0.028 min⁻¹	0.028 min⁻¹	
Cc1cn([C@H]2C[C@H](O)[C@@H](CO)O2)c(=O)[nH]c1=O [[^14C]-thymidine]		0.024 min⁻¹	0.024 min⁻¹	
O=C(O)C[18F] [[^18F]-fluoroacetate, ^18F-fluoroacetate]				preferential accumulation of the radiotracer in regions of NALM-6 tumor within the central nervous system; also recorded: higher baseline levels
